Entries after “also recorded” stand apart in the source; their conditions may differ. Where a SMILES comes first, the peptide text is derived from it. The star is where a group is joined. Palmitoyl = CCCCCCCCCCCCCCCC(=O)*
Experiments:
[1] = test system: HIV-1 infection of TZM-bl cells; assay: HIV-1 infection assay (β-galactosidase luminescence reporter); type: cell-based; details: infectivity enhancing if n-fold at 1.3 µM larger than 2
Method: HIV‐1 Infection Assay: The effect of peptide fibrils on HIV‐1 infection was studied via a luminescence assay for β‐galactosidase, which was reported by TZM‐bl cells upon infection. 10000 TZM‐bl cells were seeded in 180 µl supplemented DMEM one day prior infection. The cells were inoculated with 20 µl PNF solution 1:1 (v/v) mixed with virus (1:500 dilution) after an incubation time of 10 min. The HIV‐1 infection assay was conducted in three technical replicates and repeated in three independent experiments unless stated otherwise. The assay was conducted as described before.^[ [20] ^]

[2] = ATR-FT-IR β-sheet content; type: physicochemical; details: ATR-IR of lyophilized fibril solutions (1 mg mL-1, PBS); peak integration at 1630 cm-1 in 2nd derivative of amide I region
Method: ATR‐FT‐IR: ATR‐IR spectra acquisition and the calculation of β−sheet content were conducted according to a previous report.^[ [20] ^] Briefly, FT‐IR spectra of solid samples were recorded after lyophilization of fibril solutions using a Bruker Tensor II spectrometer equipped with a diamond crystal as ATR element with a spectral resolution of 2 cm–1, each spectrum was an average of 64 scans. The data was processed with Origin software. β−sheet amount was determined by calculating the integral of the peak at 1630 cm^−1 (β‐sheet) relative to the integral between 1650–1700 cm^−1 (native structure) from the 2nd derivative of the FT‐IR spectra.

HeLa cells = assay: Cell-PA interaction by confocal laser scanning microscopy; type: cell-based; details: peptide 20 µg mL-1 added for 30 min, washed, Proteostat stain
Method: Confocal laser scanning microscopy and degradation study with PA1‐3 and HeLa cells: HeLa cells were seeded one day prior to conducting the assay (40000/well) in an 8‐well IBIDI slide. 4 µL of the preformed peptide fibrils (1 mg mL^−1) were diluted with 4 µL Proteostat (Enzo Life Science, 1 µL stock in 999 µL PBS) and incubated for 10 min and further diluted with medium to receive a final peptide concentration of 20 µg mL^−1. The nucleus of the HeLa cells was stained with Hoechst 33 342 (NucBlue, Thermo Fisher Scientific). The peptide solution was transferred to the HeLa cells and incubated for 30 min at 37°C before washing three times with PBS. The interaction of fibril clusters with cells was monitored after 30 min incubation time on a Stellaris 8 confocal laser scanning microscope (Leica) equipped with a 20x air objective and laser excitation wavelengths of 405 nm (Hoechst) and 561 nm (Proteostat). For the evaluation of aggregate degradation, the samples were further incubated at 37°C for 3 d and analyzed without any additional washing step. The evaluation of aggregate size and number was conducted by analyzing Proteostat stained aggregates via the 3D objects counter function of ImageJ 1.53f51 for 3 individual measurements (area 581.25 µm × 581.25 µm). […] The number of aggregates larger than 10 µm^2 were counted via the 3D objects counter function of ImageJ 1.53f51. The mean number and standard deviations were determined by averaging at least three technical triplicates.
Figure S6 Laser scanning microscopy micrographs of A cells only (control), and Proteostat-stained (red) peptides B EF-
C ([…]), C PA1, D PA2, E PA3, F P1, G P2, H P3 added to HeLa cells (nucleus in blue). The peptides (20 µg mL-
1) were added to cells for 30 min, washed and analyzed. […]

[3] = TEM morphology of peptide assemblies; type: physicochemical; details: diluted from DMSO stock (10 mg mL-1) to 1 mg mL-1 in PBS, incubated 1 d at rt
Method: (§1) Transmission electron microscopy (TEM) measurements, Thioflavin (ThT), zeta‐potential measurements for fibril characterization, ATR‐IR spectra acquisition and the calculation of β−sheet were prepared and conducted analogous to a previous report.^[ [20], [86] ^] […] Fibrils were defined as distinct, if no visible structures could be identified in fluorescence and brightfield microscopy. […] The derived count rate of the zeta‐potential measurement was used as information on the light scattering intensity and turbidity of the sample as a further indicator for microscopic aggregation.^[ [90] ^]
TEM: 5 µL of fibrils (1 mg mL^−1) were placed on 300 mesh, Formvar layered copper grids. After 10 min incubation time, the grids were staining with 4% uranyl acetate solution for 2.5 min. After
three washing steps with dd H2O excess solvent was removed by filter paper. Measurements
were performed on a Jeol 1400 electron microscope with 120 kV acceleration voltage.

[4] = Zeta-potential measurement; type: physicochemical; details: fibrils 1 mg mL-1 in PBS, 60 µL diluted in 600 µL 1 mM KCl; triplicates
Method: Zeta‐potential: 60 µL of the peptides (1 mg mL^−1) were diluted in 600 µL, 1 mM KCl solution and placed in a disposable folded capillary cuvette. All zeta‐potential measurements (Zetasizer, Malvern Instruments) were conducted in triplicates for each sample.

[5] = Microscopic aggregation (fluorescence / confocal microscopy, derived count rate); type: physicochemical; details: fibrils preformed at 1 mg mL-1 in PBS; ThT or Proteostat stain, widefield or confocal microscopy; derived count rate > 1000 kcps as criterion
Method: as §1
Fluorescence microscopy: 1 µL Fibrils (1 mg mL^−1) were stained with 9 µL, 50 µM ThT. 10 µL of the stained fibrils (0.1 mg mL^−1) were placed on a microscopy glass. Fluorescence microscopy measurements were performed on a Leica DMi8 microscope with 10x air objective and equipped with a Leica MC170 HD camera with a filter setting λem = 527/30 nm upon excitation at λex = 480/40 nm) and processed with the Leica LASX software.
7 Effects of PA modifications on properties and activity
To investigate the effects of modification in the PA sequence, we created various peptide amphiphiles derived from PA1 by varying the (I) hydrophobic moiety, (II) the linkage chemistry and (III) the peptide sequence (Figure S12, SI chapter 7.1 – 7.3). The color code for sequence representation is yellow for the hydrophobic moiety, blue for cationic amino acids, red for non-polar amino acids, purple for polar uncharged amino acids, and green for anionic amino acids. To be concise, only the summarized information will be discussed, all original data for the peptides are summarized in the (Figure S26 - […]
Figure S12 Summarized overview of peptide amphiphile library in which systematic variations the original sequence […]
chemistry and (III) the peptide sequence on infectivity enhancement and degradability (see SI chapter 7.1 – 7.3).
In the following section a compound is considered infectivity enhancing if n-fold infectivity at 1.3 µM is larger than 2. A compound is considered to form µm-sized aggregates if visible particles were observed in widefield microscopy (brightfield or ThT-staining filter, objective 10x) or confocal […]
than 1000 kcps in Zeta-Potential measurements.
For the degradability only the PAs which could be stained with Proteostat (Figure S26) and were visible in microscopy (Figure S15, Figure S18, Figure S21, and Figure S22) were studied in detail. To determine […]
whether a PA is degraded or not, Proteostat stained PAs which are added to Hela cells (2 µg peptide added to 20.000 cells) and studied via confocal laser scanning microscopy. […]
In the following, we will distinguish between three aggregation types for fibrillar structures: Fibrils which were not aggregating (below resolution limit of the microscope, approx. 650 nm), moderately aggregating (< 50 µm2) and aggregating to large particles (> 50 µm 2).
7.1 Effects of hydrophobic moiety exchange on properties and activity
To investigate the effects of varying hydrophobic moieties on assembly, aggregation and activity , we

ThT fluorescence = type: physicochemical; set-up: key: + = ThT active; − = no ThT fluorescence observed; details: 1 mg mL-1 in PBS; ThT-active if fluorescence at least twice the control (PBS with 10% DMSO)
Method: ThT‐fluorescence: 20 µL 50 µM of ThT solution in PBS was pipetted in a black 384 well‐plate and 4 µL of the nanofibril solution 1 mg mL^−1 were added. For reference PBS with 10% DMSO (4 µL) instead of fibril solution was added. Subsequently, fluorescence emission was recorded λem = 488 nm upon excitation at λex = 440 nm with 10 nm bandwidth and multiple reads per well (3 × 3) using a Spark 20 M microplate reader (Tecan Group, Ltd). Data processing was performed with Origin software. A peptide fibril was considered as ThT‐active if the fluorescence intensity was at least twice as strong compared to the control (PBS containing 10% DMSO).

Row | SMILES | infectivity enhancement of HIV-1 (in words) [1] | β-sheet content [2] | association with cellular membranes (HeLa cells) | morphology of peptide assemblies / fibril formation (TEM) [3] | Zeta-Potential [4] | formation of µm-sized aggregates (in words) [5] | ThT fluorescence (ThT fluorescence)
1 | CCCCCCCCCCCCCCCC(=O)N[C@H](C(=O)N[C@H](C(=O)N[C@H](C(=O)N[C@@H](C)C(=O)N[C@@H](C)C(=O)N[C@@H](C)C(=O)N[C@@H](CCC(=O)O)C(=O)N[C@@H](CCC(=O)O)C(=O)N[C@@H](CCC(=O)O)C(N)=O)C(C)C)C(C)C)C(C)C [PA3] (Palmitoyl-VVVAAAEEE-NH2) | Inactive | 61% | does not associate with cells | distinct fibrils | −29.8 ± 2.7 mV | did not bundle or adopt µm‐sized aggregates in PBS | +
2 | CCCCCCCCCCCCCCCC(=O)N[C@@H](C)C(=O)NCC(=O)NCC(=O)N[C@@H](CCCNC(=N)N)C(=O)N[C@H](C(=O)N[C@@H](CCCCN)C(N)=O)C(C)C [C16-AGGRVK-NH2] (Palmitoyl-AGGRVK-NH2) |  |  | did not associate with cells |  |  | not forming µm-sized aggregates and forming too few/less aggregates, respectively; also recorded: no aggregation | 

From article PMC11468294, “Peptide Amphiphiles as Biodegradable Adjuvants for Efficient Retroviral Gene Delivery” (Advanced Healthcare Materials, 2023)
